Measurements from publication PMC6352943, “Novel pyrazolo[3,4-d]pyrimidines: design, synthesis, anticancer activity, dual EGFR/ErbB2 receptor tyrosine kinases inhibitory activity, effects on cell cycle profile and caspase-3-mediated apoptosis” (Journal of Enzyme Inhibition and Medicinal Chemistry, 2019).

Legend:
[1] = system: OVCAR-4; experiment: MTT cell viability assay; format: cell-based, human; conditions: Homo sapiens; OVCAR-4 ovarian cancer, MTT, 48 h, mean ± SD of three experiments; read-out: IC50 (concentration required for 50% inhibition of cell viability)
Experimental: (§1) Cell Line cells were obtained from American Type Culture Collection, cells were cultured using Dulbecco's Modified Eagle's medium (DMEM) (Invitrogen/Life Technologies) supplemented with 10% foetal bovine serum (FBS) (Hyclone), 10 μg/mL of insulin (Sigma), and 1% penicillin-streptomycin. All of the other chemicals and reagents were from Sigma, or Invitrogen. Plate cells (cells density 1.2 – 1.8 × 10,000 cells/well) in a volume of 100 µL complete growth medium and 100 μL of the tested compound per well in a 96-well plate for 24 h before the MTT assay.
(§2) Remove culture medium to a centrifuge tube. […] Add 2.0 to 3.0 ml of Trypsin EDTA solution to flask and observe cells under an inverted microscope until cell layer is dispersed. Add 6 to 8 ml of complete growth medium and aspirate cells by gently pipetting. Transfer the cell suspension to the centrifuge tube with the medium and centrifuge for 5 to 10 min. Discard the supernatant. Resuspend the cell pellet in fresh growth medium. Add appropriate aliquots of the cell suspension to new culture vessels. Incubate cultures at 37 °C for 24 h. After treatment of cells with the serial concentrations of the compound to be tested incubation is carried out for 48 h at 37 °C, then the plates are to be examined under the inverted microscope and proceed for the MTT assay.
(§3) The 3–(4, 5-dimethylthiazol-2-yl)-2,5-diphenyltetrazolium bromide (MTT) method[30] of monitoring in vitro cytotoxicity is well suited for use with multiwell plates. The assessment of cell population growth is based on the capability of living cells to reduce the yellow product MTT to a blue product, formazan, by a reduction reaction occurring in the mitochondria. The five cell lines were incubated for 24 h in 96-microwell plates. The number of living cells in the presence or absence (control) of the various test compounds is directly proportional to the intensity of the blue colour, measured by spectrophotometry using (ROBONIK P2000 Spectrophotometer) at a wavelength of 570 nm. Measure the background absorbance of multiwell plates at 690 nm and subtract from the 570 nm measurement. Five concentrations ranging from 0.01 μM to 100 μM (with semi-log decrease in concentration) were tested for each of the compounds under study. Each experiment was carried out in triplicate. The IC50 values [the concentration required for 50% inhibition of cell viability] were calculated using sigmoidal dose response curve-fitting models.

[2] = system: NCI-H460; experiment: MTT cell viability assay; format: cell-based, human; conditions: Homo sapiens; NCI-H460 lung cancer, MTT, 48 h, mean ± SD of three experiments; read-out: IC50 (concentration required for 50% inhibition of cell viability)
Experimental: as §1, §2, §3

[3] = system: ACHN; experiment: MTT cell viability assay; format: cell-based, human; conditions: Homo sapiens; ACHN renal cancer, MTT, 48 h, mean ± SD of three experiments; read-out: IC50 (concentration required for 50% inhibition of cell viability)
Experimental: as §1, §2, §3

| melting point [°C] | IC50 [1] [µM] | IC50 [2] [µM] | IC50 [3] [µM] | Compound |
| --- | --- | --- | --- | --- |
| 262 to 264 | – | – | – | Cc1nn(-c2ccc(F)cc2)c2ncnc(NN=Cc3ccncc3)c12 [Compound 10d, 1–(4-Fluorophenyl)-3-methyl-4–(2-(pyridin-4-yl-methylidene) hydrazinyl)-1H-pyrazolo[3,4-d]pyrimidine] |
| – | 2.79 ± 0.41 | 8.36 ± 0.69 | 12.4 ± 1.88 | C#Cc1cccc(Nc2ncnc3cc(OCCOC)c(OCCOC)cc23)c1 [Erlotinib, reference compound] |
